Patent US7256219B2, “Multifluoro-substituted chalcones and analogs as activators of caspases and inducers of apoptosis and the use thereof” (Cytovia, Inc., priority 2001, dated 2007)

Assays:
T-47D cells [1] = test: Caspase cascade activation (N-(Ac-DEVD)-N'-ethoxycarbonyl-R110 fluorogenic substrate) in T-47D cells; assay type: cell-based, Human; details: 24 h incubation; for Caspase activity Ratio (net RFU of test compound to that of control): 0.016 to 10 μM final; for EC50: Homo sapiens, T47D, read-out: Caspase potency EC50
Procedure: (§1) Human breast cancer cell lines T-47D and ZR-75-1 were grown according to media component mixtures designated by American Type Culture Collection+10% FCS (Invitrogen Corporation, Life Technologies Division), in a 5% CO2-95% humidity incubator at 37° C. T-47D and ZR-75-1 cells were maintained at a cell density between 50 and 80% confluency at a cell density of 0.1 to 0.6×10^6 cells/ml. Cells were harvested at 600×g and resuspended at 0.65×10^6 cells/ml into appropriate media+10% FCS. An aliquot of […] of cells was added to a well of a 96-well microtiter plate containing 2.5 μl of a 10% DMSO in RPMI-1640 media solution containing 0.16 to 100 μM of 1-[2,5-bis(2,2,2-trifluoroethoxy)phenyl]-3-[4-(trifluoromethyl)phenyl]-2-propen-1-one or other test compound (0.016 to 10 μM final). An aliquot of 22.5 μl of cells was added to a well of a 384-well microtiter plate containing 2.5 μl of a 10% DMSO in RPMI-1640 media solution without test compound as the control sample. The samples were mixed by agitation and then incubated at 37° C. for 24 h in a 5% CO2-95% humidity incubator. After incubation, the samples were removed from the incubator and 25 μl of a solution containing 14 μM of N-(Ac-DEVD)-N′-ethoxycarbonyl-R110 (SEQ. ID NO:1) fluorogenic substrate (Cytovia, Inc.; WO99/18856), 20% sucrose (Sigma), 20 mM DTT (Sigma), 200 mM NaCl (Sigma), 40 mM Na PIPES buffer pH 7.2 (Sigma), and 500 μg/ml lysolecithin (Calbiochem) was added. The samples were mixed by agitation and incubated at room temperature. Using a fluorescent plate reader (Model SpectraMax Gemini, Molecular Devices), an initial reading (T=0) was made approximately 1-2 min after addition of the substrate solution, employing excitation at 485 nm and emission at 530 nm, to determine the background fluorescence of the control sample. After the 3 h incubation, the samples were read for fluorescence as above (T=3 h).
(§2) The Relative Fluorescence Unit values (RFU) were used to calculate the sample readings as follows: RFU(T=3h)−Control RFU(T=0)=Net RFU(T=3h)
(§3) The activity of caspase cascade activation was determined by the ratio of the net RFU value for 1-[2,5-bis(2,2,2-trifluoroethoxy)phenyl]-3-[4-(trifluoromethyl)phenyl]-2-propen-1-one or other test compound to that of control samples. The EC50 (nM) was determined by a sigmoidal dose-response response calculation (Prism 2.0, GraphPad Software Inc.).

ZR-75-1 cells = test: Caspase cascade activation (N-(Ac-DEVD)-N'-ethoxycarbonyl-R110 fluorogenic substrate) in ZR-75-1 cells; assay type: cell-based, Human; details: ZR-75-1, 24 h incubation; for EC50: Homo sapiens, read-out: Caspase potency EC50; for Caspase activity Ratio (net RFU of test compound to that of control): 0.016 to 10 μM final
Procedure: as §1, §2, §3

T-47D = test: Inhibition of cell proliferation (GI50), T-47D; assay type: cell-based; details: Homo sapiens, T47D, 48 h
Procedure: (§4) All the cell lines were grown according to the conditions recommended by American Type Culture Collection. An aliquot of 90 μl of cells (2.2×10^4 cells/ml) was added to a well of a 96-well microtiter plate containing 10 μl of a 10% DMSO in RPMI-1640 media solution containing 1 nM to 100 μM of 1-[2,5-bis(2,2,2-trifluoroethoxy)phenyl]-3-[4-(trifluoromethyl)phenyl]-2-propen-1-one (0.1 nM to 10 μM final). An aliquot of 90 μl of cells was added to a well of a 96-well microtiter plate containing 10 μl of a 10% DMSO in RPMI-1640 media solution without compound as the control sample for maximal cell proliferation (AMax). The samples were mixed by agitation and then incubated at 37° C. for 48 h in a 5% CO2-95% humidity incubator. After incubation, the samples were removed from the incubator and 20 μl of CellTiter 96 AQUEOUS One Solution Cell Proliferation™ reagent (Promega) was added. […] Using an absorbance plate reader (Model 1420 Wallac Instruments), an initial reading (T=0) was made approximately 1-2 min after addition of the solution, employing absorbance at 490 nm. This determines the possible background absorbance of the test compounds. No absorbance for 1-[2,5-bis(2,2,2-trifluoroethoxy)phenyl]-3-[4-(trifluoromethyl)phenyl]-2-propen-1-one was found at 490 nm. After the 2-4 h incubation, the samples were read for absorbance as above (ATest). […]

MDA-MB-435 = test: Inhibition of cell proliferation (GI50), MDA-MB-435; assay type: cell-based; details: Homo sapiens, MDA-MB-435, 48 h
Procedure: as §4

SK-Br-3 = test: Inhibition of cell proliferation (GI50), SK-Br-3; assay type: cell-based; details: Homo sapiens, SK-BR-3, 48 h
Procedure: as §4

T-47D cells [2] = test: Cell cycle arrest and apoptosis in T-47D cells (propidium iodide flow cytometry); assay type: cell-based, Human; details: 10 μM
Procedure: T-47D, a breast cancer cell line, was maintained and harvested as described in Example 23. […] As a control, cells were also incubated with equivalent amount of solvent (DMSO). Cells were harvested at 1,200 rpm and then transferred to 12×75 mm polystyrene tubes. Cells were then resuspended in 500 μl of 1% Na Citrate, 0.1% Triton X-100, and 50 μg/ml of propidium iodide and incubated at room temperature for 30 min followed by flow cytometer analysis. All flow cytometry analyses were performed on FACScalibur (Becton Dickinson) using Cell Quest analysis software. The x-axis plotted the amount of fluorescence and the y-axis is plotted the number of cells with the indicated fluorescence. […] An increase from 13% to 33% in the sub-diploid DNA content of cells (FIG. 1) is also seen with compound treatment. The sub-diploid amount of DNA is indicative of apoptotic cells which have undergone DNA degradation or fragmentation.

PC-3 = test: Inhibition of cell proliferation (GI50), PC-3; assay type: cell-based; details: Homo sapiens, PC-3, 48 h
Procedure: as §4

DLD-1 = test: Inhibition of cell proliferation (GI50), DLD-1; assay type: cell-based; details: Homo sapiens, DLD-1, 48 h
Procedure: as §4

HeLa = test: Inhibition of cell proliferation (GI50), HeLa; assay type: cell-based; details: Homo sapiens, 48 h
Procedure: as §4

MCF-7 = test: Inhibition of cell proliferation (GI50), MCF-7; assay type: cell-based; details: Homo sapiens, MCF7; MCF-7, 48 h
Procedure: as §4

K562 = test: Inhibition of cell proliferation (GI50), K562; assay type: cell-based; details: Homo sapiens, K562, 48 h
Procedure: as §4

PANC-1 = test: Inhibition of cell proliferation (GI50), PANC-1; assay type: cell-based; details: Homo sapiens, PANC-1, 48 h
Procedure: as §4

SMILES	Caspase activity Ratio (net RFU of test compound to that of control) (T-47D cells [1])	EC50 (T-47D cells [1]) [nM]	EC50 (ZR-75-1 cells) [nM]	Caspase activity Ratio (net RFU of test compound to that of control) (ZR-75-1 cells)	GI50 (T-47D) [nM]	GI50 (MDA-MB-435) [nM]	GI50 (SK-Br-3) [nM]	sub-diploid DNA content of cells (M1) (T-47D cells [2]; T47D, 24 h, FIG. 1B legend)	G2/M DNA content cells (T-47D cells [2]; T-47D, FIG. 1B)	sub-diploid DNA content of cells (T-47D cells [2]; T-47D, control 13%) [%]	GI50 (PC-3) [nM]	GI50 (DLD-1) [nM]	GI50 (HeLa) [nM]	GI50 (MCF-7) [nM]	GI50 (K562) [nM]	GI50 (PANC-1) [nM]
O=C(C=Cc1ccccc1)c1cc(OCC(F)(F)F)ccc1OCC(F)(F)F [Example 3, 1-[2,5-Bis(2,2,2-trifluoroethoxy)phenyl]-3-phenyl-2-propen-1-one]	6.8	1600	5400	3.3	–	–	–	–	–	–	–	–	–	–	–	–
O=C(C=Cc1ccc(C(F)(F)F)cc1)c1cc(OCC(F)(F)F)ccc1OCC(F)(F)F [Example 4, 1-[2,5-Bis(2,2,2-trifluoroethoxy)phenyl]-3-[4-(trifluoromethyl)phenyl]-2-propen-1-one]	25.2	5000	6000	5.5	1500	3200	1800	increase of sub-diploid DNA content of cells	increase in G2/M DNA content cells	33	3000	2500	2300	2400	2200	3100
O=C(C=Cc1ccc([N+](=O)[O-])cc1)c1cc(OCC(F)(F)F)ccc1OCC(F)(F)F [Example 15, 1-[2,5-Bis(2,2,2-trifluoroethoxy)phenyl]-3-(4-nitrophenyl)-2-propen-1-one]	20.4	6800	6900	14.9	–	–	–	–	–	–	–	–	–	–	–	–
